Data taken from paper PMC3684770 (Free Radical Biology & Medicine, 2013).
Counter-ions that a name gives are not always drawn. Like-named read-outs stand apart in the source and are kept apart here.

Columns and labels:
Nrf2-ARE pathway = assay: ARE reporter assay in CHO 4xARE-TK-GFP cells (Spectrum library hits); conditions: for maximal fold induction: CHO, read-out: Fold GFP induction
Description: The Z′ score was calculated as follows Z′=1−(3SD^++3SD^−)/(Ave^+–Ave^−) where SD^+ = standard deviation of positive control wells; SD^− = standard deviation of negative control wells; Ave^+ = average fluorescence reading of positive control wells; Ave^− = average fluorescence reading of negative control wells.
Media was removed by hand and replaced (1 compound/well) with the Spectrum library diluted to 10 μM in 0.1% DMSO using a Q-bot liquid handling system (Genetix, New Milton, UK). […] The TK-GFP CHO ARE cell line was screened twice in a single point assay and the control TK-GFP CHO cell line was screened once to eliminate false positives.
The compounds were applied in triplicate to confluent cells in 96 well plates in serum free medium for 24 hours and the induction of GFP measured in a fluorescence plate reader.
In order to screen the Spectrum collection of 2000 molecules the reporter assay was optimised in […]. To assess the suitability of the assay for library screening, a Z’ score calculation was performed by treating alternate wells with vehicle (0.1% DMSO) and 10 µM Ebselen as a positive control (see calculation in Methods). […] The library was subsequently screened at a single point concentration of 10µM for every compound. Drug library dilutions and plating were performed with a Q-BOT liquid handling system and both the 4xARE-TK-GFP reporter cell line and TK-GFP control cell line were tested for their response to the compounds. Hits were identified as having data points more than three standard deviations above the background level, which was the average value of 24 wells treated with vehicle (0.1% DMSO) only. Hit compounds were checked to see if they generated a response in the control cell line, for example by non-specific activation of transcription or autofluorescence. […] The library screen was repeated once in the 4xARE –TK-CHO cell line and compounds classed as hits in both screens were taken forward for further assessment.

C6 astrocyte cell line [1] = assay: C6 oxidative stress assay (serum withdrawal, DCF); conditions: for C6 oxidative stress assay Max reduction: maximum % inhibition of DCF signal; for C6 oxidative stress assay Toxic dose: minimum dose at which toxicity was observed; for IC50: read-out: C6 oxidative stress assay IC50; for Emax: 24 h, read-out: C6 oxidative stress assay Max reduction
Description: (§1) Media were then replaced with serum-free, phenol-free media for 5 h.

[2] = tested on: 1321N1 astrocyte cell line; assay: 1321N1 oxidative stress assay (serum withdrawal, DCF); conditions: for 1321N1 oxidative stress assay Max reduction: maximum % inhibition of DCF signal; for 1321N1 oxidative stress assay Toxic dose: minimum dose at which toxicity was observed; for Emax: 1321-N1, 24 h, read-out: 1321N1 oxidative stress assay Max reduction
Description: as §1

NSC34 cells [3] = assay: NSC34 oxidative stress assay (serum withdrawal, DCF); conditions: for NSC34 oxidative stress assay Max reduction: maximum % inhibition of DCF signal, negative = prooxidant; for NSC34 oxidative stress assay Toxic dose: minimum dose at which toxicity was observed; for Emax: Mus musculus, NSC-34, 24 h, read-out: NSC34 oxidative stress assay Max reduction
Description: as §1

NSC34 cells [4] = tested on: NSC34 cells
Description: as §1

[5] = tested on: 1321N1 astrocyte cell line
Description: as §1

C6 astrocyte cell line [6] = tested on: C6 astrocyte cell line
Description: as §1

[7] = CHO ARE reporter, 7-point concentration response
[8] = average fold over baseline at the maximal response, CHO cells, 24 h
[9] = lowest dose at which a reduction in GFP fluorescence was observed
[10] = 24-h preconditioning, 6-h serum withdrawal, DCF fluorescence
[11] = read-out: 1321N1 oxidative stress assay IC50, 24-h preconditioning, 6-h serum withdrawal, DCF fluorescence
[12] = Homo sapiens, 1321-N1, read-out: 1321N1 oxidative stress assay IC50

Compound	Toxic dose (Nrf2-ARE pathway; [9])	C6 oxidative stress assay Toxic dose (C6 astrocyte cell line [1])	1321N1 oxidative stress assay Toxic dose [2]	NSC34 oxidative stress assay Toxic dose (NSC34 cells [3])	EC50 (Nrf2-ARE pathway; Cricetulus griseus)	Emax (C6 astrocyte cell line [1]; Rattus norvegicus, Astrocyte)	Emax ([2]; Homo sapiens)	IC50 [2, 12]	Emax (NSC34 cells [3])	IC50 (C6 astrocyte cell line [1]; Rattus norvegicus, Astrocyte)	further results
CC(=O)O[C@@H]1C[C@H]2C(C)(C)C(=O)C=C[C@]2(C)[C@H]2CC[C@]3(C)C(=CC(=O)O[C@H]3c3ccoc3)[C@@]21C [Deoxygedunin]	30 µM	none	10 µM	10 µM							EC50 (Nrf2-ARE pathway; [7]): 1.15 µM; Fold GFP induction (Nrf2-ARE pathway; [8]): 1.82 fold; C6 oxidative stress assay Max reduction (C6 astrocyte cell line [1]): 61%; IC50 (C6 astrocyte cell line [1]; [10]): 2.19 µM; 1321N1 oxidative stress assay Max reduction [2]: 25%; IC50 [2, 11]: 1.41 µM; NSC34 oxidative stress assay Max reduction (NSC34 cells [3]): 7%
O=c1c2ccccc2[se]n1-c1ccccc1 [Ebselen, reference compound]	100 µM	none	none	none	4 µM	30%	20%	0.193 µM	-80%		EC90 (Nrf2-ARE pathway; Cricetulus griseus, read-out: approximate EC90): ~10 µM
O=C(CC[N+](=O)[O-])OC[C@H]1O[C@@H](O)[C@H](OC(=O)CC[N+](=O)[O-])[C@@H](OC(=O)CC[N+](=O)[O-])[C@@H]1OC(=O)CC[N+](=O)[O-] [Endecaphyllin X]	None	none	none	10 µM							EC50 (Nrf2-ARE pathway; [7]): 18.8 µM; Fold GFP induction (Nrf2-ARE pathway; [8]): 2.15 fold; C6 oxidative stress assay Max reduction (C6 astrocyte cell line [1]): 40%; IC50 (C6 astrocyte cell line [1]; [10]): 3.15 µM; 1321N1 oxidative stress assay Max reduction [2]: 56%; NSC34 oxidative stress assay Max reduction (NSC34 cells [3]): 0%
C[C@@H]1C(=O)O[C@H]2[C@H]1CC[C@@]1(C)C=CC(=O)[C@@]3(C)O[C@@]213 [Epoxy(4,5α)-4,5-dihydrosantonin]											NSC34 oxidative stress assay Toxic dose (NSC34 cells [4]): 3 µM; Fold GFP induction (Nrf2-ARE pathway): 2.91 fold; Toxic dose (Nrf2-ARE pathway): 100 µM; EC50 (Nrf2-ARE pathway; [7]): 18.2 µM; 1321N1 oxidative stress assay Toxic dose [5]: None; C6 oxidative stress assay Max reduction (C6 astrocyte cell line [1]): 62%; IC50 (C6 astrocyte cell line [1]; [10]): 2.13 µM; 1321N1 oxidative stress assay Max reduction [2]: 63%; IC50 [2, 11]: 0.662 µM; NSC34 oxidative stress assay Max reduction (NSC34 cells [3]): 0%; C6 oxidative stress assay Toxic dose (C6 astrocyte cell line [6]): None
C=C(CC)C(=O)c1ccc(OCC(=O)O)c(Cl)c1Cl [Ethacrynic acid, reference compound]	100 µM			10 µM	14 µM	31%	25%	3.01 µM	-30%	3.01 µM	
CC(=O)O[C@H]1CCC2(C)C3=C(CCC2C1(C)C)[C@@]1(C)CC[C@@H](C(C)CCC=C(C)C)[C@]1(C)CC3 (stereo partly drawn) [Euphol acetate]	100 µM	none	none	none							Fold GFP induction (Nrf2-ARE pathway; [8]): 2.20 fold; C6 oxidative stress assay Max reduction (C6 astrocyte cell line [1]): 0%; 1321N1 oxidative stress assay Max reduction [2]: 38%; IC50 [2, 11]: 18 µM; NSC34 oxidative stress assay Max reduction (NSC34 cells [3]): -43%
O=C(/C=C/c1ccc(O)cc1)c1ccc(O)cc1O [Isoliquiritigenin]	30 µM	none	none	1 µM	2.52 µM	46%	50%	1.78 µM	-6%	28 µM	
CC(COc1ccccc1)NC(C)C(O)c1ccc(O)cc1 (stereo not drawn) [Isoxsuprine hydrochloride, reference compound]	100 µM	none	none	none		40%			-16%	23 µM	
OC[C@H]1O[C@@H](n2cnc3c(NCc4ccco4)ncnc32)[C@H](O)[C@@H]1O [Kinetin riboside]	30 µM	10 µM	3 µM	3 µM		40%	25%	0.246 µM	0%	3.84 µM	
CCCCCc1c2c(cc(O)c1C(=O)O)OC(=O)c1c(cc(OC)cc1C(=O)CCCC)O2 [Lobaric acid]	100 µM	none	none	none	17 µM	9%	0%		-26%	3.14 µM	
C=C1C(=O)O[C@H]2[C@H]1CC/C(C)=C/CC[C@@]1(C)O[C@@H]21 [Parthenolide]	100 µM	None	None	1 µM	> 100 µM	81%	47%	28.4 µM	0%	3.11 µM	maximal fold induction (Nrf2-ARE pathway; Cricetulus griseus, 24 h): 2.77
CC(C)N(C(=O)CCl)c1ccccc1 [Propachlor]	100 µM	10 µM	10 µM	10 µM	1.49 µM	74%	50%	0.829 µM	0%	0.645 µM	Fold GFP induction (Nrf2-ARE pathway; [8]): 3.25 fold
C=C(C)/C=C1/C=CC(=O)C(C)=C1 [Retusoquinone]	100 µM	none	none	none		15%	0%		-25%	2.06 µM	
COc1ccc2c(c1)OC/C(=C/c1ccc(OC)c(OC)c1)C2=O [Sappanone A trimethyl ether]	100 µM	none	none	none	3.5 µM	27%	40%	0.279 µM	-60%		maximal fold induction (Nrf2-ARE pathway; Cricetulus griseus, 24 h): 1.99
O=C1C=C2C=C[C@@H]3C[C@@]2(O1)[C@H]1CCCCN31 [Securinine]	30 µM	None	None	None	2.12 µM	67%	55%	18.3 µM	20%	0.645 µM	maximal fold induction (Nrf2-ARE pathway; Cricetulus griseus, 24 h): 3
COC(=O)[C@H](O)[C@H]1C(C)(C)[C@H](OC(C)=O)[C@@H]2CC3=C4CC(=O)O[C@@H](c5ccoc5)[C@]4(C)CC[C@@H]3[C@@]1(C)C2=O [Swietenolide 3 acetate]	100 µM	none	none	0.3 µM	3.5 µM	50%	60%		0%	4.22 µM	maximal fold induction (Nrf2-ARE pathway; Cricetulus griseus, 24 h): 2.82
CC1=CC(=O)C(C(C)C)=CC1=O [Thymoquinone]	30 µM	None	None	None		32%	25%	11 µM	0%	0.014 µM	
Methyl-7-deshydroxypyrogallin-4-carboxylate	100 µM	none	none	0.3 µM							EC50 (Nrf2-ARE pathway; [7]): > 100 µM; Fold GFP induction (Nrf2-ARE pathway; [8]): 2.83 fold; C6 oxidative stress assay Max reduction (C6 astrocyte cell line [1]): 70%; IC50 (C6 astrocyte cell line [1]; [10]): 2.95 µM; 1321N1 oxidative stress assay Max reduction [2]: 45%; NSC34 oxidative stress assay Max reduction (NSC34 cells [3]): -23%
